From patent US10294530B2, “Biomarker FOXF2 for gastric cancer” (The Chinese University of Hong Kong, priority 2016, dated 2019) come the findings set out here.

The test system of this assay is FOXF2 expression. Kind of assay: Demethylation treatment, FOXF2 expression by semi-quantitative PCR. Format: cell-based, human. Here is the method:
Semi-quantitative PCR was performed in a total volume of 20 μL reaction containing GeneAmp 1×PCR Buffer II (Applied Biosystems), 2.5 mM MgCl2, 200 μM each of dNTP, 200 nM each of primers, 0.4 U of AmpliTaq Gold DNA polymerase (Applied Biosystems) and 30˜50 ng cDNA. The PCR program started with an initial denaturation at 94° C. for 10 min, followed by 32-35 cycles (94° C. for 30 sec, annealing temperature for 30 sec, and 72° C. for 30 sec) of amplification, with a final extension at 72° C. for 10 min. The PCR bands were visualized under ultraviolet light and photographed. The expression of the target gene was normalized by the expression of house-keeping gene β-actin, which served as an internal control.
Cells were seeded at a density of 1×10^5/100-mm dishes and grew for 24 hours. Cells were then treated with 2 μM 5-aza-2′-deoxycytidine (“5-Aza”) (Sigma-Aldrich) for 5 days. The 5-Aza was replenished every day. The gene expression of FOXF2 was evaluated using semi-quantitative PCR.

In the case of `Nc1ncn([C@H]2C[C@H](O)[C@@H](CO)O2)c(=O)n1` [5-Aza, 5-aza-2′-deoxycytidine], the FOXF2 expression result runs as follows: (AGS, 2 μM 5-Aza for 5 days) “restored”; (MKN28, 2 μM 5-Aza for 5 days) “restored”; (MKN45, 2 μM 5-Aza for 5 days) “restored”; (MKN74) “insufficient”; (NCL-N87, 2 μM 5-Aza for 5 days) “restored”; (SNU719, 2 μM 5-Aza for 5 days) “restored”.
